From US20240158370A1, “CK1 alpha AND DUAL CK1 alpha / GSPT1 DEGRADING COMPOUNDS” (Innovo Therapeutics, Inc., priority 2022, published 2024)

Experiments:
CK1α = molecular target: T1, CK1α (Homo sapiens, UniProt P48729+Q96SW2); assay: HiBiT degradation assay, CK1α, Procedure A; format: cell-based; conditions: six hours incubation
T1 construct: CSNK1A1-HiBit KI HEK293(LgBit) Cells; host or cells: HEK293(LgBit) knock-in cells
In short: (§1)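 DC50 and Ymin (% remaining) were derived by four-parameter fitting of luminescence data. The data come from a six-hour, 37° C compound exposure of cells in DMEM/10% FBS over a ten-point range, 10 μM to 0.005 μM, followed by Nano-Glo HiBiT lytic detection.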

GSPT1 = GSPT1 (Homo sapiens, UniProt P15170+Q96SW2); assay: HiBiT degradation assay, GSPT1, Procedure A; format: cell-based; set-up: HiBit-GSPT1 KI HEK293(LgBit) Cells; host or cells: HEK293(LgBit) knock-in cells; conditions: six hours incubation
In short: as §1

T1 sequence (P48729 whole entry): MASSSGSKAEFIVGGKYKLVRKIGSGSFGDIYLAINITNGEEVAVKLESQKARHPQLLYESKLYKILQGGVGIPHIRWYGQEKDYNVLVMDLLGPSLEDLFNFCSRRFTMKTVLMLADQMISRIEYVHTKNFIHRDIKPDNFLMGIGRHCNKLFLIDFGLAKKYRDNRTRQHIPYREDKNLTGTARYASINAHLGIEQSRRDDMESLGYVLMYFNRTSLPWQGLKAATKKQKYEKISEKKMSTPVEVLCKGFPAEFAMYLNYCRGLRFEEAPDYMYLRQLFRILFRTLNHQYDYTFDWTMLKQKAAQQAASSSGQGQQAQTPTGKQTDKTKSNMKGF
T1 sequence (Q96SW2 whole entry): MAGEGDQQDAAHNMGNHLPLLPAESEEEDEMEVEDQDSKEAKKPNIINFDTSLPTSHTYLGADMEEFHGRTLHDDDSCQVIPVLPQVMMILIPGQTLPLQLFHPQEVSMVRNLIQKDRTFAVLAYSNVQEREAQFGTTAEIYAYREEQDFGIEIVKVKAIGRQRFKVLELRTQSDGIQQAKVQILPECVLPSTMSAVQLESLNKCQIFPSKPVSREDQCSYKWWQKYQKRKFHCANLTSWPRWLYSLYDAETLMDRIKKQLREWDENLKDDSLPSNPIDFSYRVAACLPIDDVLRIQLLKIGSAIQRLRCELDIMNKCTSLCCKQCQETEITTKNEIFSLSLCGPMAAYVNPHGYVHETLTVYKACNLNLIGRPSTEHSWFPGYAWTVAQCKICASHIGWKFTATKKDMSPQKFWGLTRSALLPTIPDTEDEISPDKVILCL
T1 sequence (Q16531 whole entry partner): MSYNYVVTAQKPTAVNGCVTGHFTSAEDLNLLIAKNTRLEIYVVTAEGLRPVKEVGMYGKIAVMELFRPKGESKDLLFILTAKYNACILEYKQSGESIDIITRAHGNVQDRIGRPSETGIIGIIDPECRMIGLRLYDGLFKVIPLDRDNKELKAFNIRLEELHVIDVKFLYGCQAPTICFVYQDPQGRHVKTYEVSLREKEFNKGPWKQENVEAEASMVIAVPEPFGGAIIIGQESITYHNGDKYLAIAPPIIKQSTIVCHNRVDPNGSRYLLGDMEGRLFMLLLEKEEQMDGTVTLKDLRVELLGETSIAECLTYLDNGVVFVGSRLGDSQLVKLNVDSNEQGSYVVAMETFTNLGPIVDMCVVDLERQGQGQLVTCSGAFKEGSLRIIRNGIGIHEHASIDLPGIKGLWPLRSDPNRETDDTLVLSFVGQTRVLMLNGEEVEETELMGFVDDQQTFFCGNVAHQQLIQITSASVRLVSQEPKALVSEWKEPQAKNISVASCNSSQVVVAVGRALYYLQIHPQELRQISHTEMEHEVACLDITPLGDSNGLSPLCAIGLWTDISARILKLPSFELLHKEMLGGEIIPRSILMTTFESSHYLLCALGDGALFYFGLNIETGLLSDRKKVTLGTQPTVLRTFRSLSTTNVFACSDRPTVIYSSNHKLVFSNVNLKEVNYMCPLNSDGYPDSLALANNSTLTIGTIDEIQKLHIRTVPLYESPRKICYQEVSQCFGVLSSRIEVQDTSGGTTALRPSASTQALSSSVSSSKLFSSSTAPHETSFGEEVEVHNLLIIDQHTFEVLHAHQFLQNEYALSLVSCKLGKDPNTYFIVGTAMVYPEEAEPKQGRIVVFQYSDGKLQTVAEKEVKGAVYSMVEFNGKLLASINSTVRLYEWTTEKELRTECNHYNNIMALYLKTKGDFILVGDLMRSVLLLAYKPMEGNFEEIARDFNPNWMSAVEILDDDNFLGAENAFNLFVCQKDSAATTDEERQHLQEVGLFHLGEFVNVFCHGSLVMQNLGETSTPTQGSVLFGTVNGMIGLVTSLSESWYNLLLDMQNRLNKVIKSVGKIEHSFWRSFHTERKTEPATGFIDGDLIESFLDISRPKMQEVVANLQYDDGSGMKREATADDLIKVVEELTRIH
Chain of GSPT1 (P15170 whole entry): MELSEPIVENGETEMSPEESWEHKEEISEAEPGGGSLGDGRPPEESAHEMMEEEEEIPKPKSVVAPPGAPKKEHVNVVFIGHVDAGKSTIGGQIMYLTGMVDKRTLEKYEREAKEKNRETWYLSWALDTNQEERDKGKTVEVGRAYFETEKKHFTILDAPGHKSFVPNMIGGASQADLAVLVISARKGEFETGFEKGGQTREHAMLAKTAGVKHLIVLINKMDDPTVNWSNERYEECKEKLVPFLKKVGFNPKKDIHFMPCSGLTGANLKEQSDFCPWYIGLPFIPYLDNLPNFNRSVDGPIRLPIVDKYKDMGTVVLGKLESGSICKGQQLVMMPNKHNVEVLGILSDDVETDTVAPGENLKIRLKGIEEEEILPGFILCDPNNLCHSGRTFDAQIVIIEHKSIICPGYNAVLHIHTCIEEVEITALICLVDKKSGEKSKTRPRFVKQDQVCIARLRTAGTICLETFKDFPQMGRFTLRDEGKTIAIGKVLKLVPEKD
Chain of GSPT1 (Q96SW2 whole entry): as the sequence (Q96SW2 whole entry) above
Chain of GSPT1 (Q16531 whole entry partner): as the sequence (Q16531 whole entry partner) above

| Compound | CK1α Ymin (CK1α) | DC50 (CK1α) | DC50 (GSPT1) | GSPT1 Ymin (GSPT1) |
| --- | --- | --- | --- | --- |
| Cn1cnc(-c2ccc3c(c2)CN(C2CCC(=O)NC2=O)C3=O)c1-c1ccc(CO)cc1 (stereo not shown) [Example 236] | C (C = 0-10% remaining) | < 25 nM | ≥ 25 nM | E (E = >25-75% remaining) |
| Cc1ccc(F)cc1-c1c(-c2ccc3c(c2)CN(C2CCC(=O)NC2=O)C3=O)ncn1C (stereo not shown) [Example 237] | E (E = >25-75% remaining) | < 25 nM | ≥ 25 nM | F (F = >75-100% remaining) |
| Cc1cc(-c2c(-c3ccc4c(c3)CN(C3CCC(=O)NC3=O)C4=O)ncn2C)ccc1F (stereo not shown) [Example 238] | D (D = >10- 25% remaining) | < 25 nM | ≥ 25 nM | F (F = >75-100% remaining) |
| Cc1ccc(-c2c(-c3ccc4c(c3)CN(C3CCC(=O)NC3=O)C4=O)ncn2C)c(F)c1 (stereo not shown) [Example 239] | C (C = 0-10% remaining) | < 25 nM | < 25 nM | F (F = >75-100% remaining) |
| Cc1ccc(-c2c(-c3ccc4c(c3)CN(C3CCC(=O)NC3=O)C4=O)ncn2C)cc1F (stereo not shown) [Example 240] | D (D = >10- 25% remaining) | < 25 nM | < 25 nM | E (E = >25-75% remaining) |
| Cc1cc(-c2c(-c3ccc4c(c3)CN(C3CCC(=O)NC3=O)C4=O)ncn2C)c(C)s1 (stereo not shown) [Example 241] | D (D = >10- 25% remaining) | < 25 nM | ≥ 25 nM | F (F = >75-100% remaining) |
| Cn1cnc(-c2ccc3c(c2)CN(C2CCC(=O)NC2=O)C3=O)c1-c1cccc(F)c1F (stereo not shown) [Example 242] | D (D = >10- 25% remaining) | < 25 nM | < 25 nM | F (F = >75-100% remaining) |
| Cc1ccc(C#N)cc1-c1c(-c2ccc3c(c2)CN(C2CCC(=O)NC2=O)C3=O)ncn1C (stereo not shown) [Example 243] | E (E = >25-75% remaining) | ≥ 25 nM | ≥ 25 nM | F (F = >75-100% remaining) |
| Cc1ccc(-c2c(-c3ccc4c(c3)CN(C3CCC(=O)NC3=O)C4=O)ncn2C)c(C#N)c1 (stereo not shown) [Example 244] | D (D = >10- 25% remaining) | < 25 nM | ≥ 25 nM | F (F = >75-100% remaining) |
| Cn1cnc(-c2ccc3c(c2)CN(C2CCC(=O)NC2=O)C3=O)c1-c1ccc2c(c1)OCC2 (stereo not shown) [Example 245] | E (E = >25-75% remaining) | < 25 nM | ≥ 25 nM | F (F = >75-100% remaining) |
| CC(C)c1ccc(-c2c(-c3ccc4c(c3)CN(C3CCC(=O)NC3=O)C4=O)ncn2C)cc1 (stereo not shown) [Example 246] | E (E = >25-75% remaining) | < 25 nM | ≥ 25 nM | F (F = >75-100% remaining) |
| Cn1cnc(-c2ccc3c(c2)CN(C2CCC(=O)NC2=O)C3=O)c1-c1cccc(C#N)c1F (stereo not shown) [Example 247] | E (E = >25-75% remaining) | < 25 nM | ≥ 25 nM | – |
| Cn1cnc(-c2ccc3c(c2)CN(C2CCC(=O)NC2=O)C3=O)c1-c1cccc(C(N)=O)c1 (stereo not shown) [Example 248] | D (D = >10- 25% remaining) | ≥ 25 nM | ≥ 25 nM | E (E = >25-75% remaining) |
| COc1ccc(C)cc1-c1c(-c2ccc3c(c2)CN(C2CCC(=O)NC2=O)C3=O)ncn1C (stereo not shown) [Example 249] | D (D = >10- 25% remaining) | < 25 nM | ≥ 25 nM | F (F = >75-100% remaining) |
| COCc1ccc(-c2c(-c3ccc4c(c3)CN(C3CCC(=O)NC3=O)C4=O)ncn2C)cc1 (stereo not shown) [Example 250] | C (C = 0-10% remaining) | < 25 nM | < 25 nM | E (E = >25-75% remaining) |
| COc1cc(-c2c(-c3ccc4c(c3)CN(C3CCC(=O)NC3=O)C4=O)ncn2C)ccc1C (stereo not shown) [Example 251] | D (D = >10- 25% remaining) | < 25 nM | ≥ 25 nM | F (F = >75-100% remaining) |
| Cc1ccc(-c2c(-c3ccc4c(c3)CN(C3CCC(=O)NC3=O)C4=O)ncn2C)cc1CO (stereo not shown) [Example 252] | D (D = >10- 25% remaining) | < 25 nM | ≥ 25 nM | E (E = >25-75% remaining) |
| COc1ccc(-c2c(-c3ccc4c(c3)CN(C3CCC(=O)NC3=O)C4=O)ncn2C)cc1O (stereo not shown) [Example 253] | C (C = 0-10% remaining) | < 25 nM | < 25 nM | D (D = >10- 25% remaining) |
| Cc1cc(Cl)ccc1-c1c(-c2ccc3c(c2)CN(C2CCC(=O)NC2=O)C3=O)ncn1C (stereo not shown) [Example 254] | E (E = >25-75% remaining) | < 25 nM | < 25 nM | E (E = >25-75% remaining) |

| Compound | CK1α Ymin (CK1α) | DC50 (CK1α) | DC50 (GSPT1) | GSPT1 Ymin (GSPT1) |
| --- | --- | --- | --- | --- |
| Cn1cnc(-c2ccc3c(c2)CN(C2CCC(=O)NC2=O)C3=O)c1-c1cccc2ccccc12 (stereo not shown) [Example 255] | E (E = >25-75% remaining) | < 25 nM | < 25 nM | F (F = >75-100% remaining) |
| Cn1cnc(-c2ccc3c(c2)CN(C2CCC(=O)NC2=O)C3=O)c1-c1ccc2ccccc2c1 (stereo not shown) [Example 256] | C (C = 0-10% remaining) | < 25 nM | < 25 nM | E (E = >25-75% remaining) |
| Cn1cnc(-c2ccc3c(c2)CN(C2CCC(=O)NC2=O)C3=O)c1-c1ccc(F)c(Cl)c1 (stereo not shown) [Example 257] | D (D = >10- 25% remaining) | < 25 nM | ≥ 25 nM | F (F = >75-100% remaining) |
| Cn1cnc(-c2ccc3c(c2)CN(C2CCC(=O)NC2=O)C3=O)c1-c1ccc(Cl)cc1F (stereo not shown) [Example 258] | D (D = >10- 25% remaining) | < 25 nM | ≥ 25 nM | E (E = >25-75% remaining) |
| Cn1cnc(-c2ccc3c(c2)CN(C2CCC(=O)NC2=O)C3=O)c1-c1ccc(F)cc1Cl (stereo not shown) [Example 259] | D (D = >10- 25% remaining) | < 25 nM | < 25 nM | E (E = >25-75% remaining) |
| Cn1cnc(-c2ccc3c(c2)CN(C2CCC(=O)NC2=O)C3=O)c1-c1ccc(Cl)c(F)c1 (stereo not shown) [Example 260] | D (D = >10- 25% remaining) | < 25 nM | < 25 nM | F (F = >75-100% remaining) |
| Cn1cnc(-c2ccc3c(c2)CN(C2CCC(=O)NC2=O)C3=O)c1-c1cc(Cl)ccc1F (stereo not shown) [Example 261] | E (E = >25-75% remaining) | < 25 nM | ≥ 25 nM | F (F = >75-100% remaining) |
| Cn1cnc(-c2ccc3c(c2)CN(C2CCC(=O)NC2=O)C3=O)c1-c1cccc(F)c1Cl (stereo not shown) [Example 262] | D (D = >10- 25% remaining) | < 25 nM | ≥ 25 nM | F (F = >75-100% remaining) |
| COc1cc(C#N)ccc1-c1c(-c2ccc3c(c2)CN(C2CCC(=O)NC2=O)C3=O)ncn1C (stereo not shown) [Example 263] | E (E = >25-75% remaining) | ≥ 25 nM | < 25 nM | F (F = >75-100% remaining) |
| CN1Cc2cccc(-c3c(-c4ccc5c(c4)CN(C4CCC(=O)NC4=O)C5=O)ncn3C)c2C1 (stereo not shown) [Example 264] | E (E = >25-75% remaining) | ≥ 25 nM | < 25 nM | E (E = >25-75% remaining) |
| CC(C)Cc1ccc(-c2c(-c3ccc4c(c3)CN(C3CCC(=O)NC3=O)C4=O)ncn2C)cc1 (stereo not shown) [Example 265] | D (D = >10- 25% remaining) | < 25 nM | ≥ 25 nM | F (F = >75-100% remaining) |
| Cn1cnc(-c2ccc3c(c2)CN(C2CCC(=O)NC2=O)C3=O)c1-c1cccc(C(C)(C)C)c1 (stereo not shown) [Example 266] | E (E = >25-75% remaining) | ≥ 25 nM | < 25 nM | F (F = >75-100% remaining) |
| CNC(=O)c1ccc(-c2c(-c3ccc4c(c3)CN(C3CCC(=O)NC3=O)C4=O)ncn2C)cc1 (stereo not shown) [Example 267] | C (C = 0-10% remaining) | ≥ 25 nM | ≥ 25 nM | F (F = >75-100% remaining) |
| CNC(=O)c1cccc(-c2c(-c3ccc4c(c3)CN(C3CCC(=O)NC3=O)C4=O)ncn2C)c1 (stereo not shown) [Example 268] | D (D = >10- 25% remaining) | ≥ 25 nM | ≥ 25 nM | F (F = >75-100% remaining) |
| Cn1cnc(-c2ccc3c(c2)CN(C2CCC(=O)NC2=O)C3=O)c1-c1ccc(Cl)c(C#N)c1 (stereo not shown) [Example 270] | D (D = >10- 25% remaining) | < 25 nM | ≥ 25 nM | F (F = >75-100% remaining) |
| Cn1cnc(-c2ccc3c(c2)CN(C2CCC(=O)NC2=O)C3=O)c1-c1cc(Cl)cc(C#N)c1 (stereo not shown) [Example 271] | E (E = >25-75% remaining) | ≥ 25 nM | < 25 nM | F (F = >75-100% remaining) |
| Cn1cnc(-c2ccc3c(c2)CN(C2CCC(=O)NC2=O)C3=O)c1-c1cc(Cl)ccc1C#N (stereo not shown) [Example 272] | E (E = >25-75% remaining) | < 25 nM | < 25 nM | F (F = >75-100% remaining) |
| COc1ccc(-c2c(-c3ccc4c(c3)CN(C3CCC(=O)NC3=O)C4=O)ncn2C)c(Cl)c1 (stereo not shown) [Example 273] | C (C = 0-10% remaining) | < 25 nM | < 25 nM | E (E = >25-75% remaining) |
| COc1ccc(Cl)cc1-c1c(-c2ccc3c(c2)CN(C2CCC(=O)NC2=O)C3=O)ncn1C (stereo not shown) [Example 274] | E (E = >25-75% remaining) | < 25 nM | ≥ 25 nM | F (F = >75-100% remaining) |
